Test results reported in patent US9849131B2 (AUTIFONY THERAPEUTICS LIMITED, priority 2009, dated 2017).

Legend:
hKv3.2 = target: T1, hKv3.2 (Homo sapiens, UniProt Q96PR1); test: IonWorks Quattro assay, secondary analysis of activation time constant (Tauact); assay type: cell-based; settings: for acts as positive or negative modulator of Kv3.1 and/or Kv3.2: classification from effect on Tauact; for effect on the value of Tauact compared to the vehicle control: vehicle DMSO 0.5%
T1 construct: expressed in transfected cells; host or cells: CHO-K1
T1 sequence (Q96PR1 1-638): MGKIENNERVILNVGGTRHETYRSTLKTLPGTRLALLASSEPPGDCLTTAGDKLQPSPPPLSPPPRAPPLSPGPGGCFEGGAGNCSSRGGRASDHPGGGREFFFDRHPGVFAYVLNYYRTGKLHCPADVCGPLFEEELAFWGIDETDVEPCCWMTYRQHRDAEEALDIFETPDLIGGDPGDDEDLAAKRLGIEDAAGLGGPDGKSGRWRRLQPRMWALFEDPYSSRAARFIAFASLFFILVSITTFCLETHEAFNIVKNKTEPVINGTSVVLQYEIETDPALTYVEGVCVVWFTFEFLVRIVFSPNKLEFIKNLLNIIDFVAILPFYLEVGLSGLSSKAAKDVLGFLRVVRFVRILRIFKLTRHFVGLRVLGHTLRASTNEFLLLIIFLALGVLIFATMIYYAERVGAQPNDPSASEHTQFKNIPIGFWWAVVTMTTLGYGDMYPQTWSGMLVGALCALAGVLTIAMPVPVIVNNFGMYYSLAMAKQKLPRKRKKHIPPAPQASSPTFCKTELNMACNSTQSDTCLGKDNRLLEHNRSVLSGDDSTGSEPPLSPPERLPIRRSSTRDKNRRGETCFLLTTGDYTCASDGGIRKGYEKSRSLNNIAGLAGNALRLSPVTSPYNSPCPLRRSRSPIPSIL
Description: A stable cell line expressing human Kv3.2 channels (hKv3.2) was created by transfecting Chinese Hamster Ovary (CHO)-K1 cells with a pCIH5-hKv3.2 vector. Cells were cultured in DMEM/F12 medium supplemented by 10% Foetal Bovine Serum, 1× non-essential amino acids (Invitrogen) and 500 ug/ml of Hygromycin-B (Invitrogen). Cells were grown and maintained at 37° C. in a humidified environment containing 5% CO2 in air.
The day of the experiment, cells were removed from the incubator and the culture medium removed. Cells were washed with 5 ml of Dulbecco's PBS (DPBS) calcium and magnesium free and detached by the addition of 3 ml Versene (Invitrogen, Italy) followed by a brief incubation at 37° C. for 5 minutes. The flask was tapped to dislodge cells and 10 ml of DPBS containing calcium and magnesium was added to prepare a cell suspension. The cell suspension was then placed into a 15 ml centrifuge tube and centrifuged for 2 min at 1200 rpm. After centrifugation, the supernatant was removed and the cell pellet re-suspended in 4 ml of DPBS containing calcium and magnesium using a 5 ml pipette to break […] up the pellet. Cell suspension volume was then corrected to give a cell concentration for the assay of approximately 3 million cells per ml.
Experiments were conducted at room temperature using IonWorks Quattro™ planar array electrophysiology technology (Molecular Devices Corp.) with PatchPlate™ PPC. Stimulation protocols and data acquisition were carried out using a microcomputer (Dell Pentium 4). Planar electrode hole resistances (Rp) were determined by applying a 10 mV voltage step across each well. These measurements were performed before cell addition. […] Following this, amphotericin-B solution was added to the intracellular face of the electrode to achieve intracellular access. Cells were held at −70 mV. Leak subtraction was conducted in all experiments by applying 50 ms hyperpolarizing (10 mV) prepulses to evoke leak currents followed by a 20 ms period at the holding potential before test pulses. From the holding potential of −70 mV, a first test pulse to −15 mV was applied for 100 ms and following a further 100 ms at −70 mV, a second pulse to 40 mV was applied for 50 ms. Cells were then maintained for a further 100 ms at −100 mV and then a voltage ramp from −100 mV to 40 mV was applied over 200 ms. In all experiments, the test pulses protocol was performed in the absence (pre-read) and presence (post-read) of the test compound. Pre- and post-reads were separated by the compound addition followed by a 3 minute incubation.
The magnitude of the effect of a compound can be determined from the time constant (Tauact) obtained from a non-linear fit, using the equation given below, of the rise in Kv3.1 or Kv3.2 currents following the start of the depolarising voltage pulse. Y=(Y0−Ymax)*exp(−K*X)+Ymax
Where: • Y0 is the current value at the start of the depolarising voltage pulse; • Ymax is the plateau current;
K is the rate constant, and Tauact is the activation time constant, which is the reciprocal of K.

Male CD-1 mice = test: Psychostimulant (amphetamine)-induced hyperactivity in mice (Example 93); settings: mouse
[1] = test system: parvalbumin-positive interneurons in the somatosensory cortex; test: Firing of parvalbumin-positive interneurons in somatosensory cortex slices, in vitro (Example 90); assay type: cell-based, mouse; settings: TEA 0.5 mM vs control slices; at least 1 hour incubation
[2] = test system: high voltage-activated potassium currents in MNTB neurons (presumed to be mediated by Kv3.1 channels); test: Potassium currents recorded from MNTB neurons, in vitro (Example 91); assay type: cell-based, mouse; settings: TEA 1 mM; voltage steps to +40 mV
Description: Male CBA/Ca mice (aged 12-16 days) were used in these experiments (in accordance with the UK Animals Scientific Procedures Act, 1986). Brain slices containing the medial nucleus of the trapezoid body (MNTB) were prepared as described previously (Brew and Forsythe, 2005).
Chemicals and reagents were purchased from Sigma, (Poole, UK) unless otherwise noted. EXAMPLE 19 was dissolved in DMSO and diluted in ACSF to the required concentration.
Recordings from identified MNTB neurons were conducted as previously described (Brew and Forsythe, 2005). Slices was placed in a superfusion chamber on an inverted microscope stage and continuously perfused with gassed (95% O2-5% CO2) ACSF at a rate of 1 ml min^−1 at room temperature. Whole-cell recordings were made from visually identified MNTB neurons using an […] amplifier (Molecular Devices, Union City, Calif., USA). Patch solution comprised (in mM) potassium gluconate (97.5), KCl (32.5), Hepes (40), EGTA (5), MgCl2 (1), Na2 phosphocreatin (5), pH 7.2 with KOH. Pipettes had resistances of 3-5 MΩ and series resistances were 6-10 MΩ (compensated by 70%, 10 μs lag). Access resistance was frequently monitored and the recording discarded if increases were more than 2 MΩ. […]

[3] = test system: fast-firing interneurons in the somatosensory cortex; test: Recordings from fast-firing interneurons driven by high frequency current pulse trains (FIG. 2); assay type: cell-based, mouse; settings: 1 microM; trains of depolarising current pulses at 100, 200, 300 Hz; n=6
Excerpt: Kv3.1 and Kv3.2 channels must activate and deactivate very rapidly in order to allow neurons to fire actions potentials at high frequency (Rudy and McBain, 2001, Trends in Neurosciences 24, 517-526). Slowing of activation will delay the onset of action potential repolarisation; slowing of deactivation will lead to hyperpolarising currents that reduce the excitability of the neuron and delay the time before the neuron can fire a further action potential. Together these two slowing effects will lead to a reduction rather than a facilitation of the neurons ability to fire at high frequencies. […] This latter effect can be observed from recordings made from “fast-firing” interneurons in the cortex of rat brain, using electrophysiological techniques, in vitro (FIG. 2).
The neurons are induced to fire at high frequencies by trains of high frequency depolarising current pulses at 100, 200, and 300 Hz. The ability of the neuron to fire an action potential on each pulse is determined. […] In the absence of drug (closed circles, n=9), the neurons maintained a spike probability of 1 up to 300 Hz.

CC1(C)NC(=O)N(c2ccc(Oc3cccc4c3C3(CC3)CO4)nc2)C1=O [Example 88, 5,5-dimethyl-3-[6-(spiro[1-benzofuran-3,1′-cyclopropan]-4-yloxy)-3-pyridinyl]-2,4-imidazolidinedione]
acts as positive or negative modulator of Kv3.1 and/or Kv3.2 (hKv3.2): negative modulators | effect on the value of Tauact compared to the vehicle control (hKv3.2; hKv3.2): markedly increase

CC[C@H]1NC(=O)N(c2ccc(Oc3ccc(C#N)cc3C3CC3)nc2)C1=O [Example 70, 3-cyclopropyl-4-({5-[(4R)-4-ethyl-2,5-dioxo-1-imidazolidinyl]-2-pyridinyl}oxy)benzonitrile]
acts as positive or negative modulator of Kv3.1 and/or Kv3.2 (hKv3.2): positive modulators

CC(N)Cc1ccccc1 (stereo not shown) [Amphetamine, amphetamine, reference compound]
Total Distance Travelled (cm) (Male CD-1 mice; amphetamine 2.0 mg/kg i.p. alone, 60 minutes, mean ± sem): 16304 ± 3309 cm | effect on total distance travelled (Male CD-1 mice; amphetamine alone 2 mg/kg i.p.): large and significant increase

CC[C@H]1NC(=O)N(c2ccc(Oc3ccc(C#N)c(OC(C)C)c3)nc2)C1=O [Example 80, 4-({5-[(4R)-4-ethyl-2,5-dioxo-1-imidazolidinyl]-2-pyridinyl}oxy)-2-[(1-methylethyl)oxy]benzonitrile]
acts as positive or negative modulator of Kv3.1 and/or Kv3.2 (hKv3.2): positive modulators

CC[N+](CC)(CC)CC [TEA, tetraethylammonium, reference compound]
maximal frequency of action potential firing in response to step currents [1]: lower maximal frequency | amplitude of outward high voltage-activated potassium currents [2]: significantly reduced

CC[C@@]1(C)NC(=O)N(c2ccc(Oc3ccc(C)c(OC)c3)nc2)C1=O [Example 30, (5R)-5-ethyl-5-methyl-3-(6-{[4-methyl-3-(methyloxy)phenyl]oxy}-3-pyridinyl)-2,4-imidazolidinedione]
acts as positive or negative modulator of Kv3.1 and/or Kv3.2 (hKv3.2): positive modulators

CC[C@H]1NC(=O)N(c2ccc(Oc3ccc(C#N)c(C(C)C)c3)nc2)C1=O [Example 77, 4-({5-[(4R)-4-ethyl-2,5-dioxo-1-imidazolidinyl]-2-pyridinyl}oxy)-2-(1-methylethyl)benzonitrile]
acts as positive or negative modulator of Kv3.1 and/or Kv3.2 (hKv3.2): positive modulators

CCc1cc(Oc2ccc(N3C(=O)N[C@H](CC)C3=O)cn2)ccc1C#N [Example 78]
acts as positive or negative modulator of Kv3.1 and/or Kv3.2 (hKv3.2): positive modulators

CC[C@H]1NC(=O)N(c2ccc(Oc3ccc(C#N)c(C4CC4)c3)nc2)C1=O [Example 76, 2-cyclopropyl-4-({5-[(4R)-4-ethyl-2,5-dioxo-1-imidazolidinyl]-2-pyridinyl}oxy)benzonitrile]
acts as positive or negative modulator of Kv3.1 and/or Kv3.2 (hKv3.2): positive modulators | Tauact mean (hKv3.2; hKv3.2, step to −15 mV, compound 3.1 μM (concentration giving ~0.3 nA current)): 7.6 ms

CC[C@H]1NC(=O)N(c2ccc(Oc3ccc(C#N)cc3C(C)(C)C)nc2)C1=O [Example 71, 3-(1,1-dimethylethyl)-4-({5-[(4R)-4-ethyl-2,5-dioxo-1-imidazolidinyl]-2-pyridinyl}oxy)benzonitrile]
acts as positive or negative modulator of Kv3.1 and/or Kv3.2 (hKv3.2): negative modulators | effect on the value of Tauact compared to the vehicle control (hKv3.2; hKv3.2): markedly increase

CC[C@H]1NC(=O)N(c2ccc(Oc3cccc4c3C3(CC3)CO4)nc2)C1=O [Example 87, (5R)-5-ethyl-3-[6-(spiro[1-benzofuran-3,1′-cyclopropan]-4-yloxy)-3-pyridinyl]-2,4-imidazolidinedione]
acts as positive or negative modulator of Kv3.1 and/or Kv3.2 (hKv3.2): negative modulators | effect on the value of Tauact compared to the vehicle control (hKv3.2; hKv3.2): markedly increase | ability of neurons to fire an action potential on each pulse (spike probability) [3]: unable to follow trains at the highest frequency

CC[C@H]1NC(=O)N(c2ccc(Oc3ccc(C#N)c(OC(F)(F)F)c3)nc2)C1=O [Example 82, 4-({5-[(4R)-4-ethyl-2,5-dioxo-1-imidazolidinyl]-2-pyridinyl}oxy)-2-[(trifluoromethyl)oxy]benzonitrile]
acts as positive or negative modulator of Kv3.1 and/or Kv3.2 (hKv3.2): positive modulators
